Reference: patent publication US11731977B2, “SGC stimulators” (Cyclerion Therapeutics, Inc., priority 2016, dated 2023)
pEC50: −log10 of the molar value.

Molecular target: T1, sGC enzyme (Homo sapiens, UniProt Q02108+Q02153)
T1 construct: sGC enzyme activity values in HEK cells, determined by the GloSensor assay; host or cells: HEK293 cells stably expressing GloSensor 40F cGMP biosensor
T1 sequence (Q02153 1-619): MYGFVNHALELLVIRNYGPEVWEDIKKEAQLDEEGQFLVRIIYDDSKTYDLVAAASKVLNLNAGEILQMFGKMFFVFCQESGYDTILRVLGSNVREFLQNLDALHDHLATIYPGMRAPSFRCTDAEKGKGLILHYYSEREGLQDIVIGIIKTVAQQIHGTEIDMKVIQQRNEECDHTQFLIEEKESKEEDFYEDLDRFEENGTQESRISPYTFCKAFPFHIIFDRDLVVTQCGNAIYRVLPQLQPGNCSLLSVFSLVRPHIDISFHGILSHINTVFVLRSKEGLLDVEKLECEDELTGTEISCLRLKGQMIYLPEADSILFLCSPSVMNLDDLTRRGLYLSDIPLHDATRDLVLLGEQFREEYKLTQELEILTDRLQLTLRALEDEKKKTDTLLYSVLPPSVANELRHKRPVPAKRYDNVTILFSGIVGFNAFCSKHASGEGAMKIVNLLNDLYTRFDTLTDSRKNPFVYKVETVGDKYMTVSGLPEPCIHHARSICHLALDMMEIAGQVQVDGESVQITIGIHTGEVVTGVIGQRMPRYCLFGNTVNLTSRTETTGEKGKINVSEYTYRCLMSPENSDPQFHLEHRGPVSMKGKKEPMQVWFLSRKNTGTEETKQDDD
T1 sequence (Q02108 1-690): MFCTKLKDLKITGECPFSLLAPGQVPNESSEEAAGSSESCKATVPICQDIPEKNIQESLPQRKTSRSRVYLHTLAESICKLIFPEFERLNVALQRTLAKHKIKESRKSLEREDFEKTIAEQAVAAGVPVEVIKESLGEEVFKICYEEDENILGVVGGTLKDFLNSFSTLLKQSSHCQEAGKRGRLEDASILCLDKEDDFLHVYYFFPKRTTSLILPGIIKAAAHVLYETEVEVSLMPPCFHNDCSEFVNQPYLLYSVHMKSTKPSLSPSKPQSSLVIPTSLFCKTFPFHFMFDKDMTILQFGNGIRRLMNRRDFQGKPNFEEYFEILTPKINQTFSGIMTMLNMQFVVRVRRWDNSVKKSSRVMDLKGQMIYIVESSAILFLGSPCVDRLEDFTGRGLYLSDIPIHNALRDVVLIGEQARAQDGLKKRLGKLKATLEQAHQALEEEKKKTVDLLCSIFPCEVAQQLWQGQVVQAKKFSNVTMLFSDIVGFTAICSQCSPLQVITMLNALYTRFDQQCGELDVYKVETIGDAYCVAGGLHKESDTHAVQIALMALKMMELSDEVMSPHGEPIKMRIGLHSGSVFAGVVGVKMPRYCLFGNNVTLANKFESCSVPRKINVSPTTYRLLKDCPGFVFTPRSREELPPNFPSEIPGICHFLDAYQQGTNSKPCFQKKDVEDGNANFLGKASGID
Assay: cGMP GloSensor cell-based assay, 384-well format (Example 2a)
Conditions: HEK293 GloSensor 40F cGMP cells; 10 μM DETA-NONOate; 50% of high control (30 μM Compound Y); read-out: Abs EC50
From the text: Human embryonic kidney cells (HEK293) cells expressing GloSensor™ 40F cGMP (Part No: CS182801, Promega) were used to evaluate the activity of test compounds. The luminescent biosensors (engineered luciferase) that were incorporated into these cells detect cGMP formed by the compounds stimulating the sGC enzyme and emit luminescence.
cGMP GloSensor cells were maintained in Dulbecco's Modification of Eagle's Medium (DMEM) supplemented with fetal bovine serum (FBS, 10% final) and hygromycine (200 ug/ml). The day before assay, cells were plated in DMEM with 10% FBS in a 50 μL volume at a density of 1.5×10^4 cells/well in a poly-D-lysine coated 384-well flat white-bottom plate (Corning Cat No 35661). Cells were incubated overnight at 37° C. in a humidified chamber with 5% CO2. The next day, medium was removed and cells were replaced with 40 ul/well of GloSensor™, 2 mM (Promega Cat No E1291). Cells were treated for 90 minutes at 25° C. to allow the substrate to equilibrate in the cells. Test compounds and Diethylenetriamine NONOate (DETA-NONOate, or DETA-NO) was diluted to 3 mM (20×) in serum-free CO2 independent medium and serially diluted at 4× dilutions to create 5× dose curve from which 10 ul was added to the wells (x μM concentration for test compound solution and 10 μM concentration for DETA-NONOate solution; wherein x is one of the following final concentrations: 30000 nM, 7500 nM, 1875 nM, 468.8 nM, 117.2 nM, 29.29 nM, 7.320 nM, 1.830 nM, 0.460 nM, 0.114 nM, and 0.029 nM).
For the kinetics studies, luminescense was measured right away for 0.2 sec per well with Envision (Perkin Elmer). For endpoint SAR screening, data were collected after 55 min incubation at room temperature.
Data were normalized to a high control using the following equation: 100*(Sample−Low Control)/(High Control−Low Control), where the low control is the average of 16 samples treated with 1% DMSO, and the high control is the average of 16 samples treated with 30 μM of Compound Y depicted below. Data were fit using a 4-parameter fit (log(agonist) vs. response—variable slope) using GraphPad Prism Software v.5. n=2 for all compounds. The Absolute (Abs) EC50 was interpolated from the curve fit and is defined as the concentration at which a given compound elicits 50% of the high control response after data normalization as indicated above. Compounds failing to elicit a minimum response of 50% are reported as >30 μM or ND. For compounds run in duplicate or n higher than 2, the result herein given is the geometric mean of the several results obtained.

| SMILES | pEC50 |
| --- | --- |
| Nc1nc(-c2cn3ccnc3c(Cc3ccccc3F)n2)n(CC(F)(F)F)n1 [Compound I-60, 5-(8-(2-fluorobenzyl)imidazo[1,2-a]pyrazin-6-yl)-1-(2,2,2-trifluoroethyl)-1H-1,2,4-triazol-3-amine] | < 6.00 |
| Fc1cccc(Cc2nc(-c3nc(C(F)F)n[nH]3)cn3ncnc23)c1F [Compound I-17, 8-(2,3-Difluorobenzyl)-6-(3-(difluoromethyl)-1H-1,2,4-triazol-5-yl)-[1,2,4]triazolo[1,5-a]pyrazine] | ≥ 7.00 |
| Fc1ccccc1Cc1nc(-c2nc(C3CC3(F)F)n[nH]2)cn2ccnc12 (racemic) [Compound I-64, rac-6-(3-(2,2-Difluorocyclopropyl)-1H-1,2,4-triazol-5-yl)-8-(2-fluorobenzyl)imidazo[1,2-a]pyrazine] | 6.00 to 7.00 |
| Fc1ccccc1Cc1nc(-c2nc(-n3ccnc3)n[nH]2)cn2ccnc12 [Compound I-63, 6-(3-(1H-imidazol-1-yl)-1H-1,2,4-triazol-5-yl)-8-(2-fluorobenzyl)imidazo[1,2-a]pyrazine] | 6.00 to 7.00 |
| Fc1cc(F)cc(Cc2nc(-c3nc(C(F)(F)F)n[nH]3)cn3ccnc23)c1 [Compound I-29, 8-(3,5-Difluorobenzyl)-6-(3-(trifluoromethyl)-1H-1,2,4-triazol-5-yl)imidazo[1,2-a]pyrazine] | ≥ 7.00 |
| Fc1ccccc1Cc1nc(-c2nc(C(F)(F)F)n[nH]2)cn2c(I)cnc12 [Compound I-66, 8-(2-Fluorobenzyl)-3-iodo-6-(3-(trifluoromethyl)-1H-1,2,4-triazol-5-yl)imidazo[1,2-a]pyrazine] | 6.00 to 7.00 |
| Cc1c(F)cc(Cc2nc(-c3nc(C(F)F)n[nH]3)cn3ccnc23)cc1F [Compound I-35, 8-(3,5-Difluoro-4-methylbenzyl)-6-(3-(difluoromethyl)-1H-1,2,4-triazol-5-yl)imidazo[1,2-a]pyrazine] | ≥ 7.00 |
| Fc1cccc(F)c1Cc1nc(-c2nc(C(F)F)n[nH]2)cn2ccnc12 [Compound I-20, 8-(2,6-Difluorobenzyl)-6-(3-(difluoromethyl)-1H-1,2,4-triazol-5-yl)imidazo[1,2-a]pyrazine] | < 6.00 |
| Cc1cc(Cn2nc(-c3cn4ccnc4c(Cc4ccccc4F)n3)nc2C)no1 [Compound I-51, 3-((3-(8-(2-Fluorobenzyl)imidazo[1,2-a]pyrazin-6-yl)-5-methyl-1H-1,2,4-triazol-1-yl)methyl)-5-methylisoxazole] | ≥ 7.00 |
| Fc1cc(F)cc(Cc2nc(-c3nc(C(F)(F)F)n[nH]3)cn3ncnc23)c1 [Compound I-24, 8-(3,5-Difluorobenzyl)-6-(3-(trifluoromethyl)-1H-1,2,4-triazol-5-yl)-[1,2,4]triazolo[1,5-a]pyrazine] | ≥ 7.00 |
| Cn1cnc2c(Cc3ccccc3F)nc(-c3nc(C(F)(F)F)n[nH]3)nc21 [Compound I-37, 6-(2-Fluorobenzyl)-9-methyl-2-(3-(trifluoromethyl)-1H-1,2,4-triazol-5-yl)-9H-purine] | < 6.00 |
| CCCCn1nc(-c2cn3ccnc3c(Cc3ccccc3F)n2)nc1C [Compound I-56, 6-(1-Butyl-5-methyl-1H-1,2,4-triazol-3-yl)-8-(2-fluorobenzyl)imidazo[1,2-a]pyrazine] | ≥ 7.00 |
| Nc1n[nH]c(-c2cn3ccnc3c(Cc3ccccc3F)n2)n1 [Compound I-57, 5-(8-(2-Fluorobenzyl)imidazozo[1,2-a]pyrazin-6-yl)-1H-1,2,4-triazol-3-amine] | 6.00 to 7.00 |
| Fc1ccccc1Cc1nc(-c2nc(C(F)(F)F)n[nH]2)cn2cnnc12 [Compound I-72, 8-(2-Fluorobenzyl)-6-(3-(trifluoromethyl)-1H-1,2,4-triazol-5-yl)-[1,2,4]triazolo[4,3-a]pyrazine] | < 6.00 |
| Fc1cccc(Cc2nc(-c3nc(C(F)(F)F)n[nH]3)cn3ncnc23)c1F [Compound I-18, 8-(2,3-Difluorobenzyl)-6-(3-(trifluoromethyl)-1H-1,2,4-triazol-5-yl)-[1,2,4]triazolo[1,5-a]pyrazine] | ≥ 7.00 |
| Nc1nc(-c2cn3ccnc3c(Cc3ccccc3F)n2)nn1CC(F)(F)F [Compound I-59, 3-(8-(2-Fluorobenzyl)imidazo[1,2-a]pyrazin-6-yl)-1-(2,2,2-trifluoroethyl)-1H-1,2,4-triazol-5-amine] | ≥ 7.00 |
| Cc1nc(-c2cn3ccnc3c(Cc3ccccc3F)n2)nn1CCCCF [Compound I-50, 8-(2-Fluorobenzyl)-6-(1-(4-fluorobutyl)-5-methyl-1H-1,2,4-triazol-3-yl)imidazo[1,2-a]pyrazine] | 6.00 to 7.00 |
| Cc1cnc2c(Cc3ccccc3F)nc(-c3nc(C(F)(F)F)n[nH]3)cn12 [Compound I-71, 8-(2-Fluorobenzyl)-3-methyl-6-(3-(trifluoromethyl)-1H-1,2,4-triazol-5-yl)imidazo[1,2-a]pyrazine] | ≥ 7.00 |
| Cc1nc(-c2cn3ccnc3c(Cc3ccccc3F)n2)nn1CC(F)(F)F [Compound I-38, 8-(2-fluorobenzyl)-6-(5-methyl-1-(2,2,2-trifluoroethyl)-1H-1,2,4-triazol-3-yl)imidazo[1,2-a]pyrazine] | ≥ 7.00 |
| Fc1ccc(F)c(Cc2nc(-c3nc(C(F)F)n[nH]3)cn3ncnc23)c1 [Compound I-23, 8-(2,5-Difluorobenzyl)-6-(3-(difluoromethyl)-1H-1,2,4-triazol-5-yl)-[1,2,4]triazolo[1,5-a]pyrazine] | ≥ 7.00 |
